Measurements taken from patent US11718624B2, “Solid state forms of substituted pyrazolopyrimidines and uses thereof” (KSQ Therapeutics, Inc., priority 2020, dated 2023).

Assay: Co-crystal screening experiments with Formula II (Table 17)
Format: physicochemical
Settings: XRPD
Description: Additional co-crystal screens were carried out to identify further solid state forms of Formula (II).
Differential scanning calorimetry (DSC) was carried out with a TA Instruments Q2000 instrument (closed aluminum sample pan aluminum sample pan with a pinhole in the lid, heating rate 20 K/min). The melting point is understood as the peak maximum.
Light microscopy was performed on a Leitz Orthoplan polarized microscope part #130880, generally a 10×10 magnification was applied.
X-ray powder diffraction (XRPD) was carried out with a Stoe Stadi P diffractometer equipped with a Mythen1K detector operating with Cu-Kα1 radiation. The measurements with this instrument were performed in transmission at a tube voltage of 40 kV and 40 mA tube power. A curved Ge monochromator allows testing with Cu-Kα1 radiation. The following parameters were set: 0.02° 2θ step size, 12 s step time, 1.5-50.5° 2θ scanning range, and 1° 2θ detector step (detector mode in step scan). For a typical sample preparation about 10 mg of sample was placed between two acetate foils and mounted into a Stoe transmission sample holder. The sample was rotated during the measurement. All sample preparation and measurement was done in an ambient air atmosphere.
TG-FTIR measurements were carried out with a Netzsch Thermo-Microblanace TG209 coupled to a Bruker FTIR Spectrometer Vector 22 (sample pans with a pinhole, N2 atmosphere, heating rate 10° C./min to 300 or 350° C.).
The starting material was a freebase form of Formula (II).

COc1ncnc(C2CC2)c1-c1ncc2cnn(Cc3ccc(-c4nc(C(F)(F)F)cn4C(C)C)cc3)c2n1 [Compound of Formula (II), 6-(4-cyclopropyl-6-methoxypyrimidin-5-yl)-1-(4-(1-isopropyl-4-(trifluoromethyl)-1H-imidazol-2-yl)benzyl)-1H-pyrazolo[3,4-d]pyrimidine]
Result (co-crystal screening) (Experiment 1: material as received): Free base
Result (co-crystal screening) (Experiment 6: benzoic acid (1:1.1 eq), EtOAc 0.5 mL/heptane 3 mL, agitated 1 day): Free base
Result (co-crystal screening) (Experiment 16: gallic acid in acetone, evaporation, glassy residue treated with water/isopropanol): Free base
Result (co-crystal screening) (Experiment 17: 300 mg, 430 mg gallic acid, EtOH, evaporated three days): Gallic acid
